Measurements as given in patent US7053178B2, “Synthetic peptides and kits for diagnosis of anti-phospholipid syndrome” (Yeda Research Development Co., LTD, priority 1998, dated 2006).
Where no end group is shown, it is not given here.

Columns and labels:
anti-β2GPI ILA-1 mAb = assay: ELISA for adhesion molecule expression on HUVEC exposed to ILA-1 mAb; format: cell-based, human; conditions: ILA-1 mAb preincubated with peptide
Method: (§1) FIG. 4 is a bar graph showing inhibition of expression of the adhesion molecules E-selectin, intracellular adhesion molecule-1 (ICAM-1) and vascular cell adhesion molecule-1 (VCAM-1) on HUVEC by specific inhibitory monomer peptides A, B, or C. To the HUVEC incubated with β2GPI, were added anti-β2GPI ILA-1, ILA-3 and G-3 mAbs with and without preincubation (2 h) with the peptide monomers A, B and C, respectively, and control peptide D. The expression of adhesion molecules was probed by ELISA employing biotinylated anti-human ICAM-1, VCAM-1, E-selectin and streptavidin-alkaline phosphatase. Each point represents mean±SD of three different experiments.
(§2) (h) ELISA for detecting the expression of adhesion molecules following exposure to anti-β2GPI mAbs and the inhibitory peptides. HUVEC cells grown in 96-well plates and preincubated with mAbs, with and without different concentrations of specific and irrelevant peptides (100 ug/ml), were washed, fixed with 0.1% glutaraldehyde, and then treated with PBS containing 0.2% Triton-X100 in order to permeabilize the cell membrane (Adamson et al., 1996). The plates were blocked with 3% BSA and incubated with biotinylated mouse anti-human E-selectin, anti-human intracellular adhesion molecule-1 (ICAM-1) or anti-human vascular cell adhesion molecule-1 (VCAM-1) (PharMingen, Torreyana Road, San Diego, Calif.) 1 μg/ml for 1 hour. The cells were then exposed to streptavidin alkaline phosphatase (Jackson) and appropriate substrate.
(§3) The enhancement of monocytes to endothelial cells followed by increase in the amount of adhesion molecules expression, as a result of exposure of endothelial cells to anti-β2GPI mAbs, has been observed previously at the laboratory of one of the present inventors. The effect of each specific peptide monomer A, B, C on the expression of the adhesion molecules E-selectin, ICAM-1 and VCAM-1 on HUVEC caused by the corresponding anti-β2GPI mAb, was examined according to Materials and Methods, section (h). […]

anti-β2GPI ILA-3 mAb [1] = assay: ELISA for adhesion molecule expression on HUVEC exposed to ILA-3 mAb; format: cell-based, human
Method: as §1, §2, §3

anti-β2GPI ILA-3 mAb [2] = assay: Competition ELISA: inhibition of ILA-3 mAb binding to β2GPI; parameters: species or system human; conditions: 10 μM peptide concentration
Method: FIGS. 1A–1C are graphs showing inhibition of the anti-β2GPI ILA-1, ILA-3 and G-3 mAbs binding to β2GPI by competition assays using increasing concentrations of the inhibitory monomer peptides A, B and C, respectively, and of unrelated peptide D as control. The percent of inhibition was calculated as follows: % inhibition=O.D control−O.D with inhibitor/O.D control×100. Each point represents mean±SD of three different experiments.
(e) Inhibition of anti-β2GPI mAb binding to β2GPI by the inhibitory peptides. For competition ELISA tests, the anti-β2GPI mAbs (10 μg/ml) were preincubated (overnight at 4° C.) with varying concentrations of the peptides. The competition reaction was then transferred to β2GPI-coated γ-irradiated ELISA plates (Nunc), and the assay continued as described above. The percentage of inhibition was calculated as follows: % inhibition=O.D control −O.D with inhibitor/O.D control×100.
(2a) The specificity of interaction of the mAbs with the corresponding synthetic peptides A, B, C and control peptide D as monomers, was assessed by inhibition experiments as described in Materials and Methods, sections (e) and (f).

[3] = system: experimental APS induced by anti-β2GPI mAb ILA-3; assay: Murine experimental APS induced by ILA-3 mAb; format: in vivo, BALB/c mice; conditions: mice infused with ILA-3 mAb, peptide 40 μg/mouse daily 3 days, day 15
Method: (i) Mice: Female BALB/c mice, aged 10–12 weeks, were purchased from Tel-Aviv University Animal House, Israel. The females were caged overnight with BALB/c males and examined for vaginal plug next morning. The presence of the plug was considered as day 0 of pregnancy in all the studied groups. (j) Induction of murine experimental APS. Mice were infused intravenously with 20 μg of each one of the anti-β2GPI ILA-1, ILA-3, and G-3 mAbs at day 0 (the day at which a vaginal plug was observed following mating) (Blank et al., 1991), 6 hours later the mice received daily 40 μg/mouse of the tested peptides during 3 days. The mice were bled and sacrificed on day 15 of pregnancy. Fetal resorptions, activated partial thromboplastin time and platelet counts (markers of the APS-equivalent in mice) were determined as described (Blank et al., 1991). Significant fetal loss, thrombocytopenia and prolonged activated thromboplastin time (aPTT) were induced in naive mice following passive intravenous administration of the three anti-β2GPI mAbs ILA-1, ILA-3 and G-3, as described in Materials and Methods, section (j). The clinical manifestations of the experimental APS were prevented by infusion of the specific peptide monomers A, B, C which were delivered to the mice with the corresponding pathogenic anti-β2GPI mAbs, as shown in Table 2. […] Similarly, mice which were preinfused with control IgM and received a cocktail of the peptide monomers (A+B+C), were not affected.

Sequence	E-selectin expression by HUVEC (anti-β2GPI ILA-1 mAb) [O.D.]	ICAM-1 expression by HUVEC (anti-β2GPI ILA-1 mAb) [O.D.]	VCAM-1 expression by HUVEC (anti-β2GPI ILA-1 mAb) [O.D.]	ICAM-1 expression by HUVEC (anti-β2GPI ILA-3 mAb [1]; HUVEC exposed to ILA-3 mAb)	VCAM-1 expression by HUVEC (anti-β2GPI ILA-3 mAb [1]; HUVEC exposed to ILA-3 mAb)	E-selectin expression by HUVEC (anti-β2GPI ILA-3 mAb [1]; ILA-3 mAb preincubated with peptide) [O.D.]	inhibition of ILA-3 mAb binding to β2GPI (anti-β2GPI ILA-3 mAb [2]) [%]	% Fetal loss (Resorbed fetuses/Total fetuses) [3] [%]	Platelet count [3] [cells/mm^3 × 10^−3]	aPTT (activated partial thromboplastin time) [3] [s]	aPTT (activated partial thromboplastin time) ([3]; listed as peptide B) [s]
NTLKTPRVGG [Peptide A]	0.239±0.064	0.204±0.072	0.252±0.071								
KDKATFGTHDG [Peptide B]				abrogated	abrogated	0.211±0.064	77	6 ± 2	1137	27 ± 2	27 ± 2
